Reference: patent publication US11198705B2, “Hybrid Amphotericin B derivatives with reduced toxicity” (priority 2018, dated 2021)
Converted amounts (≈) assume the structure as drawn. Like-named read-outs stand apart in the source and are kept apart here.

Columns and labels:
[1] = Isothermal titration calorimetry (ITC) sterol binding, ergosterol; conditions: within detection limits of ITC
From the text: (§1) This key discovery opened a path to the rational development of a non-toxic AmB variant. To probe its predicted role in sterol binding, the hydroxyl group was synthetically deleted at the C2′ position on the mycosamine appendage. […] Consistent with the sterol sponge model, this derivative retained good activity against yeast but, most importantly, was nontoxic to human red blood cells and primary (hREC) (FIG. 2B).
(§2) A practical 11-step synthesis of C2′epiAmB using a frontier site-selective acylation method was developed (FIG. 4). Wilcock, B. C. et al., Nat Chem 2012, 4 (12), 996-1003; Uno, B. E. A synthesis enabled understanding of Amphotericin B leading to derivatives with improved therapeutic indices. University of Illinois at Urbana-Champaign, 2014. The sterol binding and cell killing activities was then determined.

[2] = Isothermal titration calorimetry (ITC) sterol binding, cholesterol; conditions: within detection limits of ITC
From the text: as §1, §2

[3] = system: primary human renal epithelial cells (hREC)
From the text: As a complementary parallel first step in the screening funnel, the MTC's of all new derivatives will be evaluated against hREC using a WST-8 cell proliferation assay kit as previously described above. The MTC will be determined by calculating the mean of at least two biological replicates.

human red blood cells = assay type: cell-based
yeast = test: Activity against yeast / cell killing (FIG. 2); assay type: cell-based
From the text: as §1, §2

[4] = assay type: binding; conditions: for binding to ergosterol: UV-Vis/PCA sponge-sterol titration
From the text: (§3) However, an alternative method was developed for reproducible formation of homogenous AmB and C2′epiAmB sterol sponge aggregates in vitro. Using these preparations, a quantitative UV-Vis and Principle Component (PCA) based assay for determining the apparent KDS for the binding of AmB and C2′epiAmB to ergosterol and cholesterol (FIGS. 5A-D) was developed.
(§4) Biophysical studies support the conclusion that different capacities to bind cholesterol underlie these striking differences in toxicity for the AmBUreas versus C2′epiAmB (FIG. 15). Isothermal titration calorimetry is unable to distinguish between cholesterol binding in these two series. However, a more sensitive and quantitative UV-Vis/PCA based sponge-sterol titration experiments described above (see Example 1) was employed to quantify the binding of a representative AmB urea (AmBAU) to ergosterol and cholesterol. […] It was reasoned that the lack of cholesterol binding in C2′epiAmB to a ligand-selective allosteric effect was caused by epimerization of the C2′stereocenter (see Example 1), and thus predict that the biophysical effects associated with C2′-epimerization should be transposable to other AmB derivatives.

C. albicans [5] = test: MIC against C. albicans with and without pre-complexation with ergosterol; assay type: cell-based; conditions: sponge pre-complexed with ergosterol
From the text: Anderson, T. M. et al., Nat Chem Biol 2014, 10 (5), 400-6. […] Davis, S. A., et al., Nat Chem Biol 2015, 11 (7), 481-7. To test whether C2′epiAmB primarily kills cells via the same sterol sponge mechanism, the C2′epiAmB sponge was similarly pre-complexed with ergosterol (FIG. 9). […] Thus, C2′epiAmB similarly kills yeast primarily via sterol binding, and, by extension, the new compounds targeted in this application are expected to have a similar barrier to fungal resistance that has been observed for the past 50+ years with AmB.

[6] = system: panel of clinical isolates; test: In vitro antifungal activity, panel of clinical isolates (FIG. 11B); assay type: cell-based; conditions: read-out: Mean MIC
From the text: Burke, Andes, and Lindquist reported in 2015 a series of AmB derivatives in which the C16 acid is replaced with a urea motif via a scalable 3-step synthesis from AmB (FIG. 11A). Davis, S. A., et al., Nat Chem Biol 2015, 11 (7), 481-7. AmBUreas were studied at REVOLUTION Medicines, a biotech company for which Burke is a Founder and Consultant and Steinbach served on the Clinical Advisory Board.
(§5) Both AmBAU and AmBTACBU was further tested and compared to AmB against four strains of clinically relevant Candida species and four challenging strains of A. fumigatus (FIG. 11D).

[7] = system: four strains of clinically relevant Candida species and four challenging strains of A. fumigatus; test: In vitro antifungal activity, four Candida strains and four A. fumigatus strains (FIG. 11D); assay type: cell-based; conditions: Aspergillus fumigatus, read-out: Mean MIC
From the text: as §5

invasive candidiasis = test: Murine model of invasive candidiasis, intraperitoneal AmBUreas (FIG. 12); assay type: in vivo, mice
Experimental: (§6) To enable a head-to-head comparison with the AmB urea derivatives, AmB was delivered as a non-deoxycholate complex. […] These AmBUreas were also tested via intravenous administration in a similar model at EvoTec (Oxfordshire, UK), and their activities were compared directly with IV AmB-deoxycholate (Fungizone®) and liposomal AmB (AmBisome®) (FIG. 13).

[8] = system: A. fumigatus 91, A. fumigatus 1100; test: MIC against A. fumigatus 91 and A. fumigatus 1100; assay type: cell-based
From the text: The results with C2′epiAmBAU strongly support the prediction that C16 modifications will show improved potency compared to C2′epiAmB. […] Thus, it is expected that hybridizations of C2′epiAmB with other urea side chains will yield similar increases in potency without any mammalian toxicity. If this proves not to be the case, other classes of C16 modifications that also increase potency will be pursed. […] Alternative modifications may be pursed at the mycosamine appendage that the modelling predicts should similarly eliminate the water-bridged C2′OH to C13OH hydrogen bond, e.g., C2′deoxygenation, C2′-halodeoxygenation, or C2′-methyldeoxygenation, and thus eliminate cholesterol binding (see FIGS. 3A and 3B). This study anticipates high doses of non-toxic C2′epiAmBUreas will yield a significant reduction in fungal burden and therefore an increase in survival in QD dosing efficacy studies relative to AmB-deoxycholate (Fungizone®), AmBisome®, C2′epiAmB, voriconazole, and caspofungin.

[9] = UV-Vis/PCA sterol sponge titration, cholesterol; assay type: binding
From the text: as §3, §4

[10] = IV toxicity in rats (BUN, ALT/AST, mortality)
[11] = IV toxicity in mice (mortality); assay type: in vivo
candidiasis = test: Candidiasis mouse model, intravenous administration (EvoTec, FIG. 13); assay type: in vivo, mice
Experimental: as §6

[12] = system: wide range of clinically relevant pathogens; test: In vitro antifungal activity, wide range of clinically relevant pathogens (FIG. 11C); assay type: cell-based; conditions: across a wide range of pathogens
From the text: (§7) Steinbach and Burke recently collaborated to further compare the activity of a series of AmBUreas (AmBAU, AmBMU, and AmBCU) with AmBisome®, C2′epiAmB, caspofungin, and voriconazole against a wide range of clinically relevant pathogens, including AmB-resistant Scedosporium strains (FIG. 11C).

Scedosporium prolificans = test: In vitro antifungal activity against Scedosporium prolificans; assay type: cell-based; conditions: recalcitrant strain
From the text: as §7

[13] = PK/PD properties in mice, rats and dogs (FIG. 14); assay type: in vivo; conditions: rats, dogs
[14] = system: Candida and Aspergillus clinical isolates; test: In vitro antifungal activity, Candida and Aspergillus clinical isolates (Evotec); assay type: cell-based; conditions: many Candida and several Aspergillus strains
A. fumigatus = test: In vitro antifungal activity, A. fumigatus strains (Evotec); assay type: cell-based
[15] = system: 40 Aspergillus clinical isolates, including azole-resistant A. fumigatus, A. flavus, and A. terreus; test: Antifungal testing, extended panel of 40 Aspergillus clinical isolates (Fungus Testing Laboratory, UT-San Antonio); assay type: cell-based
[16] = system: clinically relevant invasive molds; test: In vitro antifungal activity, panel of clinically relevant invasive molds (FIG. 8C); assay type: cell-based; conditions: many strains, including pan-azole resistant strain F14196
C. albicans [17] = test: Murine model of invasive candidiasis, single IP injection (FIG. 10); assay type: in vivo, neutropenic ICR/Swiss mice
From the text: Andes, D. et al., Antimicrobial agents and chemotherapy 2001, 45 (3), 922-6. […] Wiederhold, N. P. et al., Antimicrobial agents and chemotherapy 2006, 50 (2), 469-73.

[18] = system: series of important pathogens (Candida and Aspergillus strains); test: In vitro antifungal activity of C2′epiAmBAU hybrid vs AmB, C2′epiAmB and AmBAU (FIG. 18); assay type: cell-based; conditions: A. fumigatus 91, A. fumigatus 1163, and A. fumigatus 1100
From the text: In a key result, synthesis on small scale was accomplished on the first targeted hybrid derivative, C2′epiAmBAU, as per FIG. 17 confirming the feasibility of the route to these natural product analogs. The initial biological analysis of this first C2′epiAmBUrea derivative was very encouraging since a substantial increase in antifungal potency for C2′epiAmBAU relative to C2′epiAmB was observed (FIG. 18).

CC1C=CC=CC=CC=CC=CC=CC=CC(OC2CC(N)C(O)C(C)O2)CC2OC(O)(CC(O)CC(O)C(O)CCC(O)CC(O)CC(=O)OC(C)C(C)C1O)CC(O)C2C(=O)O (stereo not drawn) [C2′deOAmB, reference compound]
binding of ergosterol by ITC [1]: bind ergosterol | binding of cholesterol by ITC [2]: not cholesterol | toxicity to primary hREC [3]: nontoxic | toxicity to human red blood cells (human red blood cells): nontoxic | activity against yeast (yeast): good activity

C[C@@H]1[C@H](O)[C@@H](C)/C=C/C=C/C=C/C=C/C=C/C=C/C=C/[C@H](O[C@@H]2O[C@H](C)[C@@H](O)[C@H](N)[C@@H]2O)C[C@@H]2O[C@](O)(C[C@@H](O)C[C@@H](O)[C@H](O)CC[C@@H](O)C[C@@H](O)CC(=O)O[C@H]1C)C[C@H](O)[C@H]2C(=O)O [AmB, Amphotericin B]
Kd [4]: 120 nM | minimum toxic concentration (MTC) against primary hRECs ([3]; human): 2.4 µM | minimum toxic concentration (MTC) in hREC, preliminary analysis ([3]; human): 2 to 4 µM | change in potency upon ergosterol pre-complexation (C. albicans [5]): same reduction in potency | MIC [6]: 1.23 µM (≈ 1.14 µg/mL) | MIC [7]: 1.33 µM (≈ 1.23 µg/mL) | dose-response (invasive candidiasis; AmB delivered as a non-deoxycholate complex): atypical lack of dose-response

COC(=O)C1C(O)CC2(O)CC(O)CC(O)C(O)CCC(O)CC(O)CC(=O)OC(C)C(C)C(O)C(C)C=CC=CC=CC=CC=CC=CC=CC(OC3OC(C)C(O)C(N)C3O)CC1O2 (stereo not drawn) [C2′epiAmBME, C2′epiAmB C16 methyl ester]
MIC ([8]; A. fumigatus 91): 4 µM (≈ 3.75 µg/mL) | MIC ([8]; A. fumigatus 1100): 4 µM (≈ 3.75 µg/mL)

CNC(=O)N[C@H]1[C@@H]2CC(OC3O[C@H](C)[C@@H](O)[C@H](N)[C@@H]3O)/C=C/C=C/C=C/C=C/C=C/C=C/C=C/[C@H](C)[C@@H](O)[C@@H](C)[C@H](C)OC(=O)C[C@H](O)C[C@H](O)CC[C@@H](O)[C@H](O)C[C@H](O)C[C@](O)(C[C@@H]1O)O2 (stereo partly drawn) [AmBMU]
binding to cholesterol [9]: retains the capacity to bind cholesterol | minimum toxic concentration (MTC) against primary hRECs ([3]; human): 44.4 µM | toxicity in rats ([10]; 6 mg/kg): significant toxicity

C[C@@H]1[C@H](O)[C@@H](C)/C=C/C=C/C=C/C=C/C=C/C=C/C=C/C(OC2O[C@H](C)[C@@H](O)[C@H](N)[C@@H]2O)C[C@@H]2O[C@](O)(C[C@@H](O)C[C@@H](O)[C@H](O)CC[C@@H](O)C[C@@H](O)CC(=O)O[C@H]1C)C[C@H](O)[C@H]2NC(=O)NCCN (stereo partly drawn) [AmBAU]
binding to ergosterol [4]: confirmed to bind | binding to cholesterol [9]: confirmed to bind | minimum toxic concentration (MTC) against primary hRECs [3]: 11.3 µM | concentration failing to fully lyse red blood cells (human red blood cells; highest concentrations tested): > 500 µM | dose at which death was observed ([11]; IV, mice): 32 mg/kg | kidney fungal burden (candidiasis; 1 mg/kg, within the limits of assay detection): sterilization in multiple mice | kidney fungal burden (candidiasis; 16 mg/kg): complete sterilization | MIC ([7]; FIG. 11D, four Candida and four A. fumigatus strains): 0.5 µM (≈ 0.491 µg/mL) | antifungal potency [12]: excellent potency | activity against Scedosporium prolificans (Scedosporium prolificans): active | PK/PD properties [13]: favorable PK/PD properties | efficacy (invasive candidiasis; administered intraperitoneally): exceptionally effective | toxicity in rats ([10]; 6 mg/kg): significant toxicity

C[C@@H]1[C@H](O)[C@@H](C)/C=C/C=C/C=C/C=C/C=C/C=C/C=C/[C@H](O[C@@H]2O[C@H](C)[C@@H](O)[C@H](N)[C@H]2O)C[C@@H]2O[C@](O)(C[C@@H](O)C[C@@H](O)[C@H](O)CC[C@@H](O)C[C@@H](O)CC(=O)O[C@H]1C)C[C@H](O)[C@H]2C(=O)O [C2′epiAmB]
binding of ergosterol by ITC [1]: bind ergosterol | binding of cholesterol by ITC [2]: not (detectably) cholesterol | binding to ergosterol [4]: retained binding | binding to cholesterol [9]: no detectable binding | minimum toxic concentration (MTC) against primary hRECs [3]: > 80 µM | toxicity to primary hREC [3]: non-toxic | toxicity to human red blood cells (human red blood cells): non-toxic | mortality ([11]; IV, mice, 128 mg/kg (highest dose tested)): survived | toxicity to mice ([11]; up to the highest dose tested): non-toxic | in vitro antifungal activity [14]: good activity | potency relative to AmB (less potent) (A. fumigatus; A. fumigatus AF91): > 32 times | potency relative to AmB (less potent) (A. fumigatus; A. fumigatus AF293, A1163, and ATC204305): 4 fold | average potency relative to AmB (less potent) ([15]; average across all 40 strains): 5.6 fold | potency relative to AmB (less potent) ([15]; range over 40 Aspergillus clinical isolates): 2-16 times | antifungal potency [16]: good antifungal potency | change in potency upon ergosterol pre-complexation (C. albicans [5]): same reduction in potency | fungal burden (C. albicans [17]; 16 mg/kg): outstanding reductions in fungal burden | efficacy (C. albicans [17]; deoxycholate complex, 1, 4, 8, or 16 mg/kg): dose-dependent efficacy | resistance of strains to compound [18]: complete or nearly complete resistance | MIC ([8]; A. fumigatus 91): > 64 µM | MIC ([8]; A. fumigatus 1100): 32 µM (≈ 29.6 µg/mL) | cell killing activities (yeast; fungal vs human cells): kill fungal but not human cells | toxicity in rats ([10]; 17.5 mg/kg (highest tested dose)): no such toxicity | toxicity to rats ([10]; up to the highest dose tested): non-toxic
